According to ChEMBL document CHEMBL1201862, “PubChem BioAssay data set” (2004):
Calls of active or inactive are those of the source.

How the values were obtained:
[1] = Luminescence Cell-Based Dose Retest to Confirm Inhibitors of Cancer Stem Cells. [Related pubchem assays (depositor defined):AID2717, AID2721]; format: functional; conditions: Homo sapiens
[2] = molecular target: X-box-binding protein 1 (Homo sapiens, UniProt P17861); format: functional, Cricetulus griseus;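 further: confirmatory dose-response counter-screen serving a CHOP assay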
[3] = molecular target: DNA damage-inducible transcript 3 protein (Mus musculus, UniProt P35639); format: functional, Cricetulus griseus
[4] = molecular target: Transitional endoplasmic reticulum ATPase (Homo sapiens, UniProt P55072); assay: p97 ATPase inhibitors, dose response, biochemical (AID 1534)
[5] = molecular target: Transitional endoplasmic reticulum ATPase (Homo sapiens, UniProt P55072, C522A); assay: C522A mutant p97 ATPase inhibitors, dose response, counter-screen for p97 inhibitor project, biochemical, luminescence (AID 1544)
[6] = molecular target: T1, Coagulation factor XII (Homo sapiens, UniProt P00748); assay: FXIIa inhibitor potency, concentration-response, biochemical (AID 716); format: functional
T1 sequence (P00748 whole entry): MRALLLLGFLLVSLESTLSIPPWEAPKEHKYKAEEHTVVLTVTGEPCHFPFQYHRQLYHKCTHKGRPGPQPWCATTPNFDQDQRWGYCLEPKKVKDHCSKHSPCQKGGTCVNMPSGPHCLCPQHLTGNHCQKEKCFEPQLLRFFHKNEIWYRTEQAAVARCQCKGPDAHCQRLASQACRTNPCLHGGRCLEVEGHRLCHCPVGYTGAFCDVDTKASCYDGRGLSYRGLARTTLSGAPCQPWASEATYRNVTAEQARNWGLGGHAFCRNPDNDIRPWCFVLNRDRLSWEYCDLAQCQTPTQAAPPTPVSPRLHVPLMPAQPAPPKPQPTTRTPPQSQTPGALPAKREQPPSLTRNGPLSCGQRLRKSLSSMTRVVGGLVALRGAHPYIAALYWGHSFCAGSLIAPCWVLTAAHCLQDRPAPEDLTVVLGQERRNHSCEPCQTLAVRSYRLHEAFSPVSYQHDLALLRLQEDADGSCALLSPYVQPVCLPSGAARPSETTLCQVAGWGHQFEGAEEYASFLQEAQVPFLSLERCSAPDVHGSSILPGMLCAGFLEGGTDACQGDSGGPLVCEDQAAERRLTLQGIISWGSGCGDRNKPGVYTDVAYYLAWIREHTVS

[7] = cells
[8] = test system: HEK293; assay: NOD2 signaling inhibitors in MDP-stimulated cells, cell-based, uHTS, luminescence (AID 2001); format: functional; conditions: Homo sapiens
[9] = test system: HEK293; assay: cells; format: functional, cell-based; conditions: Homo sapiens
[10] = molecular target: Nucleotide-binding oligomerization domain-containing protein 2 (Homo sapiens, UniProt Q9HC29); assay: NOD2 signaling inhibitors, cell-based, luminescence, uHTS, HEK293 (AID 1566); format: functional
[11] = test system: HEK293; assay: cells; format: functional, cell-based; conditions: Homo sapiens; remark: listed apart in the source
[12] = molecular target: Major prion protein (Homo sapiens, UniProt P04156); format: functional, cell-based
[13] = test system: HEK293; assay: NOD1 signaling inhibitors, primary screen, cell-based, luminescence, uHTS (AID 1578); format: functional; conditions: Homo sapiens
[14] = test system: HEK293; assay: cells; format: functional, cell-based; conditions: Homo sapiens; remark: listed apart in the source
[15] = molecular target: Mucolipin-3 (Homo sapiens, UniProt Q8TDD5); assay: Fluorescence counterscreen assay for […] agonists: dose response cell-based high-throughput screening assay to identify agonists of the transient receptor potential channel ML3 (TRPML3). [Related pubchem assays: 1424, 1448 ]; format: functional
[16] = inhibitors of intracellular T. cruzi replication, confirmation, NIH3T3 host cells, beta-gal luminescence (AID 2044); format: functional, cell-based;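 further: intracellular parasites grown in NIH/3T3 mouse fibroblasts as host cells; luminescent beta-galactosidase reporter signal from transgenic T. cruzi replicating inside host cells; inhibitors lower the luminescence signal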
[17] = cytotoxicity toward NIH3T3 fibroblasts, dose response, counter-screen, cell-based, ATP luminescence, mouse fibroblasts (AID 2010); format: functional;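 further: cells exposed to compound for about 90 hours before reading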
[18] = molecular target: Ion channel NompC (Danio rerio, UniProt Q7T1G6); assay: Dose response cell-based high-throughput screening assay for agonists of the transient receptor potential channel N1 (TRPN1). [Related pubchem assays (depositor defined):AID1424, AID1448]; format: functional
[19] = test system: Vero; assay: cells; format: functional; conditions: Chlorocebus sabaeus
[20] = Luminescence Cell-Based Dose Confirmation HTS to Identify Inhibitors of Platelet Dense Granule Release. [Related pubchem assays: 1663 (Primary HTS), 1678 (Summary of Project)]; format: functional
[21] = test system: Vero; assay: cells; format: functional, cell-based; conditions: Chlorocebus sabaeus
[22] = molecular target: T2, Short transient receptor potential channel 4 (Mus musculus, UniProt Q9QUQ5); assay: mouse TRPC4 channel activators, dose response, cell-based, HEK293 TRPC4/mu-opioid, Fluo-4 calcium (AID 434937); format: functional
T2 sequence (Q9QUQ5 whole entry): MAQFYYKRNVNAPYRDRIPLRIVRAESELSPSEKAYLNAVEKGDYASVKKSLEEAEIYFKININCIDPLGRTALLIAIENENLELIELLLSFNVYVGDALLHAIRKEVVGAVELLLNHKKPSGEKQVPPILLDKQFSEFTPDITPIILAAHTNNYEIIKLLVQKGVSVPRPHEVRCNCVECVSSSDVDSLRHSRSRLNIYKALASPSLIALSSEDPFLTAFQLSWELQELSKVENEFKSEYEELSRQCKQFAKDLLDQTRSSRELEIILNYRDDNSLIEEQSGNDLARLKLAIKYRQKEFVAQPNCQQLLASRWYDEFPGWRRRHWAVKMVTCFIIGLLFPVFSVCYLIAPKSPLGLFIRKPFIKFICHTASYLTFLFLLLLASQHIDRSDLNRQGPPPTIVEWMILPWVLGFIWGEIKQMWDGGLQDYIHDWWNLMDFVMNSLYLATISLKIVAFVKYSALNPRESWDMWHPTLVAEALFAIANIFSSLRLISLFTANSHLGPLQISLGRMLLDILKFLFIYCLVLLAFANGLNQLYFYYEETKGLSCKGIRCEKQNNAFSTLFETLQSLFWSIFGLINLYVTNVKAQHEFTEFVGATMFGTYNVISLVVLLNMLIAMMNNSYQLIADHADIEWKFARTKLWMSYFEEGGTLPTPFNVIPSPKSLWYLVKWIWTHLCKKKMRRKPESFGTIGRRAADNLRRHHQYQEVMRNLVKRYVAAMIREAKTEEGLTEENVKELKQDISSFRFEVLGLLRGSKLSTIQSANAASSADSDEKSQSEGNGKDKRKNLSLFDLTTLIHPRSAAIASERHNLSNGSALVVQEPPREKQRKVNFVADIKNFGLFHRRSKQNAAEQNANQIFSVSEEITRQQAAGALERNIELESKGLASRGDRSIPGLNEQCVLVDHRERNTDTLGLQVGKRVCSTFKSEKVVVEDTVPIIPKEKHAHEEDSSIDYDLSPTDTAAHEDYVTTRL

[23] = molecular target: Luciferin 4-monooxygenase (Photinus pyralis, UniProt P08659); assay: firefly luciferase enzyme inhibitors, dose response, biochemical, luminescence (AID 1891)
[24] = molecular target: T3, G-protein coupled receptor 35 (Homo sapiens, UniProt Q9HC97); assay: SAR analysis of Agonists of the GPR35 Receptor using an Image-Based Assay - Set 3. [Related pubchem assays (depositor defined):AID1961, AID1965]; format: functional
[25] = molecular target: T4, Cannabinoid receptor 1 (Homo sapiens, UniProt P21554); assay: SAR analysis of agonists of the Cannabinoid Receptor 1 using an Image-Based Assay - Set 3. [Related pubchem assays (depositor defined):AID1961, AID1965]; format: functional
[26] = molecular target: T5, Cannabinoid receptor 2 (Homo sapiens, UniProt P34972); assay: SAR analysis of antagonists of the Cannabinoid Receptor 2 using an Image-Based Assay - Set 2. [Related pubchem assays (depositor defined):AID1961, AID1965]; format: functional
[27] = molecular target: T4, Cannabinoid receptor 1; assay: SAR analysis of antagonists of the Cannabinoid Receptor 1 using an Image-Based Assay - Set 3. [Related pubchem assays (depositor defined):AID1961, AID1965]; format: functional
[28] = molecular target: T3, G-protein coupled receptor 35; assay: SAR analysis of Antagonists of the GPR35 Receptor using an Image-Based Assay - Set 4. [Related pubchem assays (depositor defined):[…]]; format: functional
[29] = molecular target: T5, Cannabinoid receptor 2; assay: SAR analysis of agonists of the Cannabinoid Receptor 2 using an Image-Based Assay - Set 2. [Related pubchem assays (depositor defined):AID1961, AID1965]; format: functional
[30] = molecular target: G-protein coupled receptor 55 (Homo sapiens, UniProt Q9Y2T6); assay: SAR analysis of selective Agonists of GPR55 using an Image-Based Assay - Set 2. [Related pubchem assays (depositor defined):AID1961, AID1965]; format: functional
[31] = molecular target: Hexokinase (Trypanosoma brucei, UniProt Q38C41); assay: Confirmation assay for inhibitors of Trypanosoma brucei hexokinase 1-Analogue-first series. [Related pubchem assays (depositor defined):AID1430, AID1632, AID2516, AID2560, AID2579, AID2600, AID449725, AID492951]; format: functional
[32] = molecular target: Mu-type opioid receptor (Homo sapiens, UniProt P35372); assay: SAR Analysis of Antagonists of the MOR Receptor using an Image-Based Assay - Set 3. [Related pubchem assays (depositor defined):AID1777, AID1785, AID1786, AID1966, AID2133, AID2136, AID2284, AID2285, AID2420]; format: functional
[33] = molecular target: T6, Kappa-type opioid receptor (Homo sapiens, UniProt P41145); assay: SAR analysis of Antagonists of the Kappa Opioid Receptor (KOR) using an Image-Based Assay - Set 3. [Related pubchem assays (depositor defined):AID1777, AID1785]; format: functional
[34] = molecular target: Delta-type opioid receptor (Homo sapiens, UniProt P41143); assay: SAR Analysis of Antagonists of the DOR Receptor using an Image-Based Assay - Set 3. [Related pubchem assays (depositor defined):AID1777, AID1785]; format: functional;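 further: U2OS cells expressing DOR1 and beta-arrestin GFP stimulated with 100 nM SNC80; imaging of GFP-tagged beta-arrestin moving into spots after receptor activation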
[35] = molecular target: T6, Kappa-type opioid receptor; assay: SAR analysis of small molecule antagonists of the kappa opioid receptor via a luminescent beta-arrestin assay - Set 3. [Related pubchem assays (depositor defined):AID1777, AID1778, AID1785, AID1786, AID1966, AID2133, AID2136, AID2285, AID2495]; format: functional
[36] = molecular target: T1, Coagulation factor XII; assay: Factor XIIa Dose Response Confirmation from Single Well HTS. [Related pubchem assays (depositor defined):AID701]; format: functional
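Wherever AC50 is given: cells exposed to compound for roughly 70 hours or longer before luminescence read.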

Cc1cc(Nc2ccccc2)nc(-c2ccccc2O)n1
AC50 [1]: 5.64 µM (active) | Absolute IC50 (XBP1) [2]: < 10 µM | Absolute IC50 (CHOP) [3]: 10 µM | IC50 [4]: > 50 µM (not active) | IC50 [5]: > 50 µM (not active)

CC(C)CCn1c(=S)[nH]c2ncccc2c1=O
IC50 [6]: > 50 µM (inactive)

Cc1nc2c(Br)cc(Br)cc2cc1O
IC50 [7]: > 138 µM (inactive) | IC50 [8]: 6.68 µM (active) | IC50 [9]: > 20 µM (inactive) | EC50 [10]: 13.2 µM (active) | IC50 [11]: > 20 µM (inactive) | IC50 [12]: 1.36 µM (active) | EC50 [13]: 11.4 µM (active) | IC50 [14]: 6.3 µM (active)

CC(C)(C)c1ccc(C(=O)NC(=S)NNC(=O)c2cccs2)cc1
EC50 [15]: 0.292 µM (active) | EC50 [16]: 2.15 µM (active) | EC50 [17]: 13.5 µM (active) | EC50 [18]: 0.168 µM (active) | CC50 [19]: 17.4 µM (active) | EC50 [20]: 24.5 µM (active) | IC50 [21]: > 12.5 µM (active) | EC50 [22]: 1.5 µM (active) | EC50 [23]: > 112 µM (not active)

COc1ccc(S(=O)(=O)N2CCOCC2)cc1NC(=O)c1ccc2c(c1)OCO2
EC50 [24]: > 32 µM (inactive) | EC50 [25]: > 32 µM (inactive) | IC50 [26]: > 32 µM (inactive) | IC50 [27]: > 32 µM (inactive) | IC50 [28]: > 32 µM (inactive) | EC50 [29]: > 32 µM (inactive) | EC50 [30]: 18 µM (inactive)

COc1ccccc1-n1sc2ccccc2c1=O
IC50 [31]: 7.9 µM (active)

Cc1cccc(S(=O)(=O)NCc2ccc(C(=O)NCCN(Cc3ccccc3)Cc3ccccc3)cc2)c1
IC50 [32]: > 32 µM (inactive) | IC50 [33]: > 32 µM (inactive) | IC50 [34]: > 32 µM (inactive) | IC50 [35]: > 20 µM (inactive)

COc1ccc(/C=c2/sc3n(c2=O)NC2(c4ccccc4)N(C)C(=O)N(C)C2(c2ccccc2)N=3)cc1 (stereo unspecified)
IC50 [36]: > 50 µM (inactive)
